Measured values published in US20200102349A1, “PEPTIDE REAGENTS AND METHODS FOR DETECTION AND TARGETING OF DYSPLASIA, EARLY CANCER AND CANCER” (THE REGENTS OF THE UNIVERSITY OF MICHIGAN, priority 2014, published 2020).

Key:
[1] = test system: HT29, SW480, and SW620 cells; test: Flow cytometry binding to colorectal cancer cells; assay type: cell-based, human; conditions: 5 μM, 1 hour, 4° C.
Description: HT29, SW480, and SW620 cells were grown to confluence and detached with enzyme-free, PBS-based cell dissociation buffer (Gibco, #13151-014) and cell scrapper. The cells were centrifuged at 1500 rpm for 5 min at 4° C., and then blocked with 0.5% BSA in PBS for 30 min on ice and washed with PBS. […] were incubated with 5 μM of either QRH*-Cy5.5 or PEH*-Cy5 for 1 hour at 4° C. with mixing. Cells incubated with PBS alone were used as control. The cells were centrifuged again, washed 3× with cold PBS, and fixed on ice with 4% PFA for 10 min. Flow cytometry was performed with ˜10^4 cells/sample (BD® LSRII, BD Biosciences), and analyzed with the Flowjo software (Tree Star Inc).

[2] = test system: colonic dysplasia (flat lesions and polyps); test: In vivo NIR fluorescence endoscopy of colon in CPC;Apc mouse; conditions: for mean (±SD) log of the T/B ratio: topical 100 μM, 5 min incubation
Description: For the in vivo fluorescence images of mouse colon, the T/B ratios for flat dysplasia and polyps were log-transformed to improve normality. The fold-change between classification pairs was estimated using the anti-log of the difference in the log-transformed data. Differences in results between the experimental and control peptides were evaluated on t-test. *P<0.05 was considered significant. Similar methods were used to evaluate the ex vivo fluorescence images of human colonic specimens. The results were plotted on a receiver-operator characteristic (ROC) curve. Co-localization of peptide and antibody binding was evaluated on Pearson's correlation coefficient. All analyses were performed using custom Matlab software (MathWorks Inc).
Mouse imaging studies were performed with approval of the University of Michigan Committee on the Use and Care of Animals (UCUCA). The mice were housed in pathogen-free conditions and supplied water ad libitum under controlled conditions of humidity (50±10%), light (12/12 hour light/dark cycle) and temperature (25° C.). Anesthesia was induced and maintained via a nose cone with inhaled isoflurane mixed with oxygen at a concentration of 2-4% at a flow rate of ˜0.5 L/min. The colon was first rinsed with tap water to remove mucous and debris. White light illumination was used first to identify anatomic landmarks, including polyps, mucosal folds, colonic segment, and distance of endoscope tip from anus, to register images with histology. The Cy5.5-labeled peptides were delivered at a concentration of 100 μM in a volume of 1.5 mL through the 3 Fr instrument channel. After 5 min for incubation, the colon was rinsed 3× with a tap water to remove the unbound peptides. After imaging was completed, the mice were euthanized. The colon was resected, and divided along the longitudinal axis. Flat lesions and polyps were identified on fluorescence, excised perpendicular to the mucosal surface, and processed for histology (H&E). We collected images from mice (n=5) that ranged in age from 7 to 10 months.
Imaging was performed using a small animal endoscope (Karl Storz Veterinary Endoscopy).^39 A xenon light source provides white light illumination via a fluid light cable. A diode-pumped solid state laser (TechnicaLaser Inc) provides excitation at λex=671 nm. The laser beam is expanded to a diameter of 3 mm to fill the aperture of the light cable. The laser power at the tip of the endoscope is <2 mW. The white light images reflect off a dichroic mirror (Semrock Inc, # FF685-Di02-25×36, λc=685 nm), and are focused by an achromatic doublet (Edmund Optics Inc, #32-323). They pass through a neutral density filter (OD 1), and are detected by a color camera (Point Grey Research, # GX-FW-28S5C-C). The fluorescence images pass through the dichroic and a band pass filter (Semrock Inc, # FF01-716/40-25, λC=716 nm, Δλ=40 nm), and are focused on a monochrome camera (Point Grey Research, # GX-FW-28S5M-C). All videos (1932×1452 resolution) are recorded at 15 frames per sec via a firewire connection.
White light and fluorescence videos were exported in avi format with 24 (RGB) and 8 (grayscale) bit digital resolution for the color and fluorescence images, respectively. […] Individual frames were exported using custom Matlab software. On the fluorescence images, 3 regions of interest (ROI, 25×25 pixels) were picked at random within the dysplastic lesion and within adjacent areas of normal-appearing mucosa. The mean intensities within these ROI's on the fluorescence images were measured. The target to-background (T/B) ratio for each image was determined by ratioing the mean intensities of these two ROIs.

[3] = test system: dysplastic crypts in polyps; test: Immunofluorescence on mouse colon polyp specimens; conditions: OCT embedded polyp specimens
Description: Specimens of flat dysplasia in mouse colon were formalin fixed and processed as described above. Specimens of polypoid dysplasia in mouse colon were frozen in OCT (Sakura Finetek), cut in 10 μm sections, and incubated with 1:1000 dilution of primary goat anti-mouse anti-EGFR antibody and AF488-labeled secondary antibody, as described previously. The sections were washed 3× with PBS, fixed with 4% PFA for 10 min, washed with PBS 1×, and mounted with Prolong Gold reagent containing DAPI (Invitrogen). Confocal microscopy images were collected with DAPI, AF488, and Cy5.5 filters. Adjacent sections were processed for histology (H&E).

EGFR = EGFR (Homo sapiens, UniProt P00533); test: Co-localization of EGFR peptide and anti-EGFR antibody binding on colorectal cancer cells; assay type: cell-based; design: endogenous in cells; host or cells: HT29 human colorectal adenocarcinoma cells (ATCC)
Description: We evaluated co-localization of binding by the QRH*-Cy5.5 peptide and a validated anti-EGFR antibody on cells that overexpress EGFR. A panel of colorectal cancer cells (HT29, SW480, and SW620) was grown on cover slips to […]. QRH*-Cy5.5 at 5 μM concentration was incubated with each cell line for 1 hour at 4° C. The cells were washed and fixed with 4% PFA for 5 min. The cells were incubated with primary anti-EGFR antibody and secondary AF488-labeled antibody, as described previously. We applied the peptide rather than the antibody to the cells first because the peptide has a lower affinity and in the lower concentration (<10 μM) is less likely to interfere with antibody binding. Confocal fluorescence images were collected with FITC, Cy5.5, and DAPI filters using a 63× oil-immersion objective.

“QRHKPRE (SEQ ID NO: 1) with Cy5.5 fluorophore attached via a GGGSK linker (SEQ ID NO: 18) on the C-terminus [QRH*-Cy5.5]” was tested, and the “binding on flow cytometry compared with control peptide” value [1] was “stronger binding to each cell than PEH*-Cy5.5”, the “mean fold-difference of T/B, QRH*-Cy5.5 versus PEH*-Cy5.5” value ([2]; flat lesions (n=15)) was 2.05 and the “mean (±SD) log of the T/B ratio” value ([2]; flat lesions (n=15)) was 0.420±0.103. The “mean fold-difference of T/B, QRH*-Cy5.5 versus PEH*-Cy5.5” value ([2]; polyps (n=15)) was 2.43, the “mean (±SD) log of the T/B ratio” value ([2]; polyps (n=15)) was 0.572±0.181 and the “NIR fluorescence signal from polyp and flat lesions in vivo” value ([2]; topical, distal colon, 5 min) was “increased intensity”. The “fluorescence for binding to dysplastic crypts” value [3] was “increased fluorescence”, the “co-localization with AF488-labeled anti-EGFR antibody” value (EGFR; HT29 cells, 5 μM) was “co-localize” and the “binding on confocal microscopy” value (EGFR; SW620 cells) was “Minimal binding”.
